The target in assay [1] is T1, central CCK-B receptors (guinea pig cortical membrane) (Cavia porcellus, UniProt H0VZC5).
T1 construct: Cerebral cortices of white male guinea pigs were therefore used; from tissue; host or cells: guinea pig cerebral cortex membranes
T1 sequence (H0VZC5 1-426): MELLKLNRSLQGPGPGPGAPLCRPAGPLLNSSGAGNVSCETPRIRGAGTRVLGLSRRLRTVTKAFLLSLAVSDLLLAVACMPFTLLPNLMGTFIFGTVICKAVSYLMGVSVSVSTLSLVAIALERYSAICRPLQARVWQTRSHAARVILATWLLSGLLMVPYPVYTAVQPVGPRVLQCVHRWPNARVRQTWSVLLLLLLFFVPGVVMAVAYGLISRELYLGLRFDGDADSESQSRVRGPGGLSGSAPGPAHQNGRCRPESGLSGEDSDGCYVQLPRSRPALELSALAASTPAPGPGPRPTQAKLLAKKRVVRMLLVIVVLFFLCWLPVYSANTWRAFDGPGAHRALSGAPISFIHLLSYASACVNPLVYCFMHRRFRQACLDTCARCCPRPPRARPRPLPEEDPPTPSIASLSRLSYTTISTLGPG
As to the kind of experiment: Inhibition of binding of (3-H)[N-methyl-N-leucine]CCK-8 to guinea pig cortical membranes (anti-CCK-B). The settings on record: IC50, inhibition of binding of (3-H)[N-methyl-N-leucine]CCK-8 to the guinea pig cortical membrane, 150 minutes at 25° C. How it is done:
Cerebral cortices of white male guinea pigs were therefore used, according to the method mentioned above, so as to obtain a membrane content/ml corresponding to about 300 mcg of proteins/mi. The membranes were incubated together with the radioactive tracer and the compounds under test for 150 minutes at 25° C. After the supernatant liquid had been discarded, the radioactivity associated with the pellet was determined with a liquid scintillator.

In assay [2] the test system is guinea-pig ureters. The experiment in a line: Antispastic activity in vitro: spontaneous motility of guinea-pig ureters. The following applies: for IC50: Cavia porcellus, five minutes contact, 37° C. An excerpt:
The isotonic contractions were detected by means of a force transducer and recorded. […] A given concentration of the product under test was then introduced into the bath and left in contact with the prepared specimen for five minutes, after which the ureter was washed until its own spontaneous activity was re-established.

The mark [3] stands for this setting: force of the contractions, read-out: IC50 (force), inhibition of the spontaneous motility of guinea-pig ureters in vitro.
Setting [4] is: frequency of the contractions, read-out: IC50 (frequency), inhibition of the spontaneous motility of guinea-pig ureters in vitro.

The results in this text go back to patent publication US5587479A, “Basic derivatives of glutamic acid and aspartic acid as gastrin or cholecystokinin antagonists” (priority 1992, dated 1996).

What is called IC50 is the concentration at which inhibition is half-maximal.

≈ marks a conversion by molar mass, not a printed value. Where two headings read alike, the source gives them in different places.

`CCCCCN(CCCCC)C(=O)C(CCC(=O)NCCN1CCOCC1)NC(=O)c1ccc(C)c(C)c1` (racemic) [Compound 44, (RS) 1-[4'-(ethylenamino)morpholinyl]-1-oxo-4-[(3,4-dimethylbenzoyl)-amino]-5-(dipentylamino) -5-oxopentane]: the results for the IC50 in assay [1], in assay [2] (setting [3]) and in assay [2] (setting [4]) were 65.4 µM, 5 µg/mL (≈ 9.42 µM) and 4 µg/mL (≈ 7.54 µM), respectively. Moreover, in assay [2], the “activity on guinea-pig ureters (in words)” value is on record as “extremely active”. As for `CN(C)CCNC(=O)CC[C@@H](NC(=O)c1cc(Cl)cc(Cl)c1)C(=O)N1CCC2(CCCC2)CC1` [Compound 4], the IC50 was found to be 12.5 µM in assay [1] and 121 µg/mL (≈ 237 µM) in assay [2] (setting [4]).

On to `CN1CCN(CCNC(=O)CC[C@@H](NC(=O)c2cc(Cl)cc(Cl)c2)C(=O)N2CCC3(CCCC3)CC2)CC1` [Compound 6], for which the IC50 in assay [1] was 3.3 µM. On to `CN1CCN(C(=O)CC[C@@H](NC(=O)c2cccc(Cl)c2)C(=O)N2CCC3(CCCC3)CC2)CC1` [Compound 7], for which the IC50 in assay [1] stood at 6.5 µM. For `CCCCN(CCCC)C(=O)C(CCC(=O)NCCN(C)C)NC(=O)c1ccc(C)c(C)c1` (stereo not drawn) [Compound 25], the IC50 in assay [2] (setting [3]) came out at 36 µg/mL (≈ 78.1 µM). `CCCCN(CCCC)C(=O)C(CCC(=O)NCCCN(C)C)NC(=O)c1ccc(C)c(C)c1` (stereo not drawn) [Compound 27]: the half-maximal inhibitory concentration (IC50) in assay [2] (setting [3]) was found to be 33 µg/mL (≈ 69.5 µM).

Turning to `CCCCN(CCCC)C(=O)C(CCC(=O)NCCN1CCOCC1)NC(=O)c1ccc(C)c(C)c1` (stereo not drawn) [Compound 28], the results for the 50% inhibitory concentration (IC50) in assay [2] (setting [3]) and in assay [2] (setting [4]) were 18 µg/mL (≈ 35.8 µM) and 43 µg/mL (≈ 85.5 µM), respectively. Turning to `CCCCN(CCCC)C(=O)C(CCC(=O)NCCCN1CCOCC1)NC(=O)c1ccc(C)c(C)c1` (stereo not drawn) [Compound 29], the results for the IC50 in assay [2] (setting [3]) and in assay [2] (setting [4]) were 18 µg/mL (≈ 34.8 µM) and 17 µg/mL (≈ 32.9 µM), respectively. For `CCCCN(CCCC)C(=O)C(CCC(=O)NCC1CCCN1CC)NC(=O)c1ccc(C)c(C)c1` (stereo not drawn) [Compound 31], the 50% inhibitory concentration (IC50) in assay [2] (setting [3]) amounted to 23 µg/mL (≈ 45.9 µM).

For the compound `CCCCCN(CCCCC)C(=O)C(CCC(=O)NCCN1CCOCC1)NC(=O)c1ccccc1` (stereo not drawn) [Compound 32], the IC50 in assay [2] (setting [4]) came out at 22 µg/mL (≈ 43.8 µM). On to `CCCCCN(CCCCC)C(=O)C(CCC(=O)NCCN1CCOCC1)NC(=O)c1ccc(C)cc1` (stereo not drawn) [Compound 33], for which the IC50 came to 18 µg/mL (≈ 34.8 µM) in assay [2] (setting [3]) and 16 µg/mL (≈ 31 µM) in assay [2] (setting [4]).

On to `CCCCCN(CCCCC)C(=O)C(CCC(=O)NCCN1CCOCC1)NC(=O)c1ccc(C#N)cc1` (stereo not drawn) [Compound 34], for which the IC50 in assay [2] (setting [3]) and in assay [2] (setting [4]) was 12 µg/mL (≈ 22.7 µM) in each case. As for `CCCCCN(CCCCC)C(=O)C(CCC(=O)NCCN1CCOCC1)NC(=O)c1ccc(OC)c(OC)c1` (stereo not drawn) [Compound 35], the IC50 in assay [2] (setting [3]) amounted to 18 µg/mL (≈ 32 µM); in assay [2] (setting [4]) it was 16 µg/mL (≈ 28.4 µM).

For the compound `CCCCCN(CCCCC)C(=O)C(CCC(=O)NCCN1CCOCC1)NC(=O)c1ccc(Cl)c(Cl)c1` (stereo not drawn) [Compound 37], the IC50 in assay [2] (setting [3]) amounted to 8 µg/mL (≈ 14 µM); in assay [2] (setting [4]) it was 7 µg/mL (≈ 12.2 µM).
